Experimental data from US20070072815A1, “Methods and kits to increase the efficiency of oligonucleotide-directed nucleic acid sequence alteration” (priority 2004, published 2007).
“Also recorded” adds a separate entry of the source.

Assays:
[1] = system: homologous recombination (HR); settings: via inhibition of ATM kinase / p53 ser-15 phosphorylation; cited from earlier work
[2] = system: mutant eGFP gene in DLD-1-1 cells; assay: eGFP gene correction (oligonucleotide-directed sequence alteration) in DLD-1-1 cells, FACS readout; assay type: cell-based
Description: Cell line and culture conditions: DLD-1 cells are obtained from ATCC (American Type Cell Culture, Manassas, Va.). DLD-1 integrated clone 1 (DLD-1-1) is obtained by integration of the vector pEGFP-N3 containing a single point mutation (TAG) in the eGFP gene, as described in copending U.S. patent application Ser. No. 10/986,418, filed Nov. 10, 2004 (“Mammalian Cell Lines for Detecting, Monitoring, and Optimizing Oligonucleotide-Mediated Chromosomal Sequence Alteration”). Cells are grown in RPMI 1640 medium with 2 mM glutamine, 4.5 g/L glucose, 10 mM HEPES, 1 mM sodium pyruvate and supplemented with 10% FBS. Cells are maintained at 5% CO2, 37° C. and under selection in 200 μg/ml G418 (Gibco, Invitrogen Co., Carlsbad, Calif.).
eGFP gene correction: Cells grown in complete medium supplemented with 10% FBS are trypsinized and harvested by centrifugation. The cell pellet is resuspended in serum-free medium at a density of 1×10^6 cells/100 μl and transferred to a 4 mm gap cuvette (Fisher Scientific, Pittsburgh, Pa.). The oligonucleotide is then added at a concentration of 4 μM and the cells are electroporated (LV, 250V, 13 msec, 2 pulses, 1 second interval) using a BTX ECM830 apparatus (BTX, Holliston, Mass.). The cells are then transferred to a 60 mm dish containing fresh medium supplemented with 10% FBS and incubated for 48 hrs at 37° C. before harvesting for FACS analysis.
The percentage of converted cells in a whole population is then calculated by CellQuest™ (Becton Dickinson) and GFP/PI programs. The correction efficiency is determined by dividing the number of eGFP positive cells by the number of cells analyzed in each experiment (usually 50,000 cells). Each clone is tested three times to determine the standard deviation of the correction efficiency, with standard deviation calculated using Microsoft Excel.
The experimental strategy involves the introduction of oligonucleotides into DLD-1-clone 1 cells by electroporation followed by phenotypic readout of the corrected eGFP gene, 48 hours later. The correcting oligonucleotide (EGFP3S/72NT) is 72 bases in length (72-mer), complementary to the non-transcribed strand of the mutant eGFP gene but designed to create a single mismatch in the third base of codon 67 (see FIG. 1A). It directs conversion of a TAG→TAC codon which enables phenotypic expression of eGFP, which can be detected by FACS. FIG. 1B outlines the sequence of the target gene, the 72-mer and a nonspecific 74-mer used as a control.
Oligonucleotide-Directed Sequence Alteration: The resulting synchronized populations of cells, and asynchronous controls, are grown in complete medium supplemented with 10% FBS and trypsinzed and harvested by centrifugation at 1500 rpm for 5 minutes. The cell pellet is resuspended in fresh serum-free medium at a density of 2×10^6 cells/100 μl. The entire cell suspension is mixed with 20 μg of EGFP/72NT and transferred into a 4 mm gap cuvette (Fisher Scientific, Pittsburgh, Pa., USA) followed by electroporation with two 250V pulses, each 13 ms in duration, with one second between pulses, unipolar.
Cells are incubated at room temperature for 30 min. […] Frequency of converted cells are calculated by CellQuest™ and GFP/PI programs.
Double Thymidine Block: Cells are synchronized in G1 or at the G1/S border by a double thymidine block. Twenty-four hours prior to the addition of any agent (HU, etc.), cells are plated at a density of 0.5×10^6 cells per 100 mm dish, followed by incubation in 2 mM thymidine (Sigma) for 16 hrs, washed and released in fresh medium for 10 hrs, then incubated in 2 mM thymidine for an additional 15 hrs.
FACS is then used to analyze 50,000 cells from each population to determine the percentage of cells expressing functional eGFP, as described in Example 1.

[3] = system: α-galactosidase A (GLA) activity in Fabry's cell line DMN-1; assay: GLA activity in Fabry's cells after ODSA; assay type: cell-based, human
Excerpt: Cell line DMN-1, a human fibroblast cell line derived from a human patient with Fabry's disease, is obtained from the National Institutes of Health (NIH). These cells are used to measure the efficiency of correction of a mutant allele of α-galactosidase A (GLA) using methods of the present invention. The specific disease-causing mutation in the Fabry's cell line used herein is A143P, caused by a G→C mutation in the gene. See Branton et al., Medicine (Baltimore) (2002) 81(2): 122-38.
All four oligonucleotides are used to effect ODSA substantially as described in Example 1, with the exception that cells are transfected with oligonucleotides, rather than electroporated. Oligos are added at 5 μg, 10 μg or 30 μg per reaction. After ODSA is performed, cells are cultured and assayed for GLA activity according to the method of Brady, as described in Medin et al., Proc. Natl. Acad. Sci. (USA) (1996) 93:7917-22, the disclosure of which is incorporated herein by reference in its entirety. The GLA activity is used as a measure of gene correction by comparing the activities in treated versus untreated cultures. The correction efficiency is subsequently confirmed by sequencing of the locus of mutation in a number of treated cells.
[…] Unlike the experiments involving correction of eGFP in DLD-1-1 cells described in Example 1, however, certain of the agents (VPA, caffeine, TSA) in the experiments in this example are not added before transfection, but are instead added only after transfection, during the recovery period.
The means of introducing oligonucleotide into the target cells also differs from previous examples, with transfection in the presence of the transfection enhancing agent FuGENE™ 6 (FG) (Roche Diagnostics Corp., Indianapolis, Ind., USA) being used rather than electroporation. Each transfection reaction includes 100 μl of target cells and 12 μl of FG unless otherwise indicated, despite the fact that FG is not explicitly listed for each datapoint in the relevant figures. Otherwise the procedures used in the DLD-1-1 experiments and the Fabry's experiments are similar.
The results of a further series of experiments are shown at FIG. 15D, where the data are presented as GLA activity as nanomolar (nM) concentration of the product of the GLA assay generated per hour per unit protein concentration (as are the data in FIGS. D and E).

Cn1c(=O)c2c(ncn2C)n(C)c1=O [caffeine]
reduction of the level of HR [1]: 60-90%
effect on correction efficiency, recovery phase ([2]; 4 mM caffeine after electroporation, up to 48 hrs): dramatically increases correction efficiency; also recorded: stimulates correction; also recorded: the greater the enhancement of correction efficiency
effect on MMS-enhanced correction ([2]; 4 mM caffeine in addition to 0.2 μM MMS): completely suppressing the enhancement otherwise caused by MMS
effect on correction efficiency ([2]; 4 mM caffeine pre-treatment, with or without 0.2 μM MMS): lower than the control experiment; also recorded: ineffective at increasing the efficiency of gene repair
effect on correction efficiency, pretreatment ([2]; 4 mM caffeine prior to electroporation): decreases correction efficiency; also recorded: inhibits oligonucleotide-directed gene correction; also recorded: reduction in basal repair levels
correction levels ([2]; caffeine added to ddC-treated cells, pretreatment (FIG. 20)): 0.6%
effect on ddC-stimulated gene repair ([2]; inhibitor added with ddC before electroporation (FIG. 20)): blocks the stimulation in gene repair caused by ddC treatment; also recorded: knocks down correction induced by ddC
effect on GLA activity ([3]; synchronized cells treated with 0.3 mM HU, 4 mM caffeine during recovery period): modest effect on GLA activity
effect on ddC-enhanced GLA activity ([3]; synchronized cells, 500 μM ddC, 4 mM caffeine or 100 ng/ml TSA during recovery period): eliminate the ability of 500 μM ddC to enhance GLA activity
